Results as given in PMC6917776, “Discovery of a chemical probe for PRDM9” (Nature Communications, 2019).

How the values were obtained:
[1] = tested on: SKMM2; experiment: CelltiterGlo viability cell assay; type: cell-based
Procedure: (§1) Supplementary Figure 13. […] Viability of
(§2) (a) Multiple Myeloma lines and (b) Breast Cancer cell lines following 3 or 6 days treatment with […]
(§3) manufacturer’s instructions as described in the Supplementary methods. Data are normalized to DMSO control. N=3 biological replicates, +/- SEM. Source data are provided as a Source Data […]
(§4) CelltiterGlo viability cell assay
(§5) Cells were seeded in 96 well plates at per-well densities of 10000 (MDA-MB436, ATCC-HTB130), 15000 (8226, kind gift from Rodger Tiedemann, Princess Margaret Cancer Centre), […]
(§6) kind gift from Rodger Tiedemann, Princess Margaret Cancer Centre) and 50000 (CAL851, kind gift from Mathieu Lupien, Princess Margaret Cancer Centre) and were treated at increasing concentrations of compounds ranging from 0.01 μM to 30 μM and assessed for proliferation using CelltiterGlo (Promega) following manufacturer’s instructions, as readout on days 3 and 6 as indicated. All cell lines were mycoplasma negative, as determined by MycoAlert™ Mycoplasma Detection Kit(Lonza). […]

[2] = tested on: CAL851; experiment: CelltiterGlo viability cell assay; type: cell-based
Procedure: as §1, §2, §3, §4, §5, §6

COc1cc(OC)cc(-c2noc(N3CCN(C)C4(CCN(c5ccccc5)CC4)C3)n2)c1 [MRK-740N]
viability Average ([1]; SKMM2, 3 day, 0.03 uM): 99.81 | viability Replicate 1 ([1]; SKMM2, 3 day, 0.03 uM): 100.19 | viability Replicate 2 ([1]; SKMM2, 3 day, 0.03 uM): 99.28 | viability Replicate 3 ([1]; SKMM2, 3 day, 0.03 uM): 99.96 | viability Average ([1]; SKMM2, 3 day, 0.1 uM): 99.75 | viability Replicate 1 ([1]; SKMM2, 3 day, 0.1 uM): 99.33 | viability Replicate 2 ([1]; SKMM2, 3 day, 0.1 uM): 101.27 | viability Replicate 3 ([1]; SKMM2, 3 day, 0.1 uM): 98.65 | viability Average ([1]; SKMM2, 3 day, 0.3 uM): 100.91 | viability Replicate 1 ([1]; SKMM2, 3 day, 0.3 uM): 100.74 | viability Replicate 2 ([1]; SKMM2, 3 day, 0.3 uM): 101.32 | viability Replicate 3 ([1]; SKMM2, 3 day, 0.3 uM): 100.69 | viability Average ([1]; SKMM2, 3 day, 1 uM): 99.32 | viability Replicate 1 ([1]; SKMM2, 3 day, 1 uM): 99.24 | viability Replicate 2 ([1]; SKMM2, 3 day, 1 uM): 100.37 | viability Replicate 3 ([1]; SKMM2, 3 day, 1 uM): 98.34 | viability Average ([1]; SKMM2, 3 day, 3 uM): 97.16 | viability Replicate 1 ([1]; SKMM2, 3 day, 3 uM): 96.17 | viability Replicate 2 ([1]; SKMM2, 3 day, 3 uM): 98.52 | viability Replicate 3 ([1]; SKMM2, 3 day, 3 uM): 96.79 | viability Average ([1]; SKMM2, 3 day, 9.5 uM): 95.36 | viability Replicate 1 ([1]; SKMM2, 3 day, 9.5 uM): 96.79 | viability Replicate 2 ([1]; SKMM2, 3 day, 9.5 uM): 94.04 | viability Replicate 3 ([1]; SKMM2, 3 day, 9.5 uM): 95.26 | viability Average ([1]; SKMM2, 3 day, 30 uM): 58.34 | viability Replicate 1 ([1]; SKMM2, 3 day, 30 uM): 67.94 | viability Replicate 2 ([1]; SKMM2, 3 day, 30 uM): 41.11 | viability Replicate 3 ([1]; SKMM2, 3 day, 30 uM): 65.95 | viability Average ([1]; SKMM2, 6 day, 0.01 uM): 99.21 | viability Replicate 1 ([1]; SKMM2, 6 day, 0.01 uM): 91.53 | viability Replicate 2 ([1]; SKMM2, 6 day, 0.01 uM): 105.08 | viability Replicate 3 ([1]; SKMM2, 6 day, 0.01 uM): 101.01 | viability Average ([1]; SKMM2, 6 day, 0.03 uM): 96.26 | viability Replicate 1 ([1]; SKMM2, 6 day, 0.03 uM): 90.23 | viability Replicate 2 ([1]; SKMM2, 6 day, 0.03 uM): 98.46 | viability Replicate 3 ([1]; SKMM2, 6 day, 0.03 uM): 100.08 | viability Average ([1]; SKMM2, 6 day, 0.1 uM): 98.07 | viability Replicate 1 ([1]; SKMM2, 6 day, 0.1 uM): 90.96 | viability Replicate 2 ([1]; SKMM2, 6 day, 0.1 uM): 102.71 | viability Replicate 3 ([1]; SKMM2, 6 day, 0.1 uM): 100.56 | viability Average ([1]; SKMM2, 6 day, 0.3 uM): 97.57 | viability Replicate 1 ([1]; SKMM2, 6 day, 0.3 uM): 90.30 | viability Replicate 2 ([1]; SKMM2, 6 day, 0.3 uM): 102.21 | viability Replicate 3 ([1]; SKMM2, 6 day, 0.3 uM): 100.20 | viability Average ([1]; SKMM2, 6 day, 1 uM): 94.68 | viability Replicate 1 ([1]; SKMM2, 6 day, 1 uM): 89.98 | viability Replicate 2 ([1]; SKMM2, 6 day, 1 uM): 95.60 | viability Replicate 3 ([1]; SKMM2, 6 day, 1 uM): 98.45 | viability Average ([1]; SKMM2, 6 day, 3 uM): 95.79 | viability Replicate 1 ([1]; SKMM2, 6 day, 3 uM): 90.06 | viability Replicate 2 ([1]; SKMM2, 6 day, 3 uM): 96.19 | viability Replicate 3 ([1]; SKMM2, 6 day, 3 uM): 101.13 | viability Average ([1]; SKMM2, 6 day, 9.5 uM): 94.06 | viability Replicate 1 ([1]; SKMM2, 6 day, 9.5 uM): 88.71 | viability Replicate 2 ([1]; SKMM2, 6 day, 9.5 uM): 96.00 | viability Replicate 3 ([1]; SKMM2, 6 day, 9.5 uM): 97.48 | viability Average ([1]; SKMM2, 6 day, 30 uM): 64.98 | viability Replicate 1 ([1]; SKMM2, 6 day, 30 uM): 81.69 | viability Replicate 2 ([1]; SKMM2, 6 day, 30 uM): 45.98 | viability Replicate 3 ([1]; SKMM2, 6 day, 30 uM): 67.29 | viability Average ([2]; CAL851, 3 day, 0.01 uM): 102.43 | viability Replicate 1 ([2]; CAL851, 3 day, 0.01 uM): 104.57 | viability Replicate 2 ([2]; CAL851, 3 day, 0.01 uM): 100.53 | viability Replicate 3 ([2]; CAL851, 3 day, 0.01 uM): 102.20 | viability Average ([2]; CAL851, 3 day, 0.03 uM): 101.16 | viability Replicate 1 ([2]; CAL851, 3 day, 0.03 uM): 95.74 | viability Replicate 2 ([2]; CAL851, 3 day, 0.03 uM): 100.94 | viability Replicate 3 ([2]; CAL851, 3 day, 0.03 uM): 106.79 | viability Average ([2]; CAL851, 3 day, 0.1 uM): 104.74 | viability Replicate 1 ([2]; CAL851, 3 day, 0.1 uM): 106.32 | viability Replicate 2 ([2]; CAL851, 3 day, 0.1 uM): 96.40 | viability Replicate 3 ([2]; CAL851, 3 day, 0.1 uM): 111.49 | viability Average ([2]; CAL851, 3 day, 0.3 uM): 106.71 | viability Replicate 1 ([2]; CAL851, 3 day, 0.3 uM): 111.33 | viability Replicate 2 ([2]; CAL851, 3 day, 0.3 uM): 101.82 | viability Replicate 3 ([2]; CAL851, 3 day, 0.3 uM): 106.99 | viability Average ([2]; CAL851, 3 day, 1 uM): 96.30 | viability Replicate 1 ([2]; CAL851, 3 day, 1 uM): 98.38 | viability Replicate 2 ([2]; CAL851, 3 day, 1 uM): 96.24 | viability Replicate 3 ([2]; CAL851, 3 day, 1 uM): 94.27 | viability Average ([2]; CAL851, 3 day, 3 uM): 97.71 | viability Replicate 1 ([2]; CAL851, 3 day, 3 uM): 91.85 | viability Replicate 2 ([2]; CAL851, 3 day, 3 uM): 95.91 | viability Replicate 3 ([2]; CAL851, 3 day, 3 uM): 105.37 | viability Average ([2]; CAL851, 3 day, 9.5 uM): 95.86 | viability Replicate 1 ([2]; CAL851, 3 day, 9.5 uM): 89.90 | viability Replicate 2 ([2]; CAL851, 3 day, 9.5 uM): 94.75 | viability Replicate 3 ([2]; CAL851, 3 day, 9.5 uM): 102.94 | viability Average ([2]; CAL851, 3 day, 30 uM): 88.50 | viability Replicate 1 ([2]; CAL851, 3 day, 30 uM): 89.70 | viability Replicate 2 ([2]; CAL851, 3 day, 30 uM): 92.97 | viability Replicate 3 ([2]; CAL851, 3 day, 30 uM): 82.83 | viability Average ([2]; CAL851, 6 day, 0.01 uM): 99.23 | viability Replicate 1 ([2]; CAL851, 6 day, 0.01 uM): 100.50
